# Patent publication EP0724879A2, “2-Phenyl-3-azoylbenzothiopenes for inhibiting effects of IL-6” (ELI LILLY AND COMPANY, priority 1995, dated 1996)
# Experiments:
# OVX-induced osteopenia = test: Assay 1: bone mass / BMD protection in OVX rats; assay type: in vivo, SD rats; settings: for BMD % (protection) / OVX-induced osteopenia: OVX rats, 35 day treatment; for OVX-induced osteopenia / bone density: result in words; for bone density: OVX/hypophysectomized (HYPOX) rats
# Procedure: (§1) Six month old, virgin SD rats are OVX or OVX/hypophysectomized (HYPOX) and treated with vehicle (20% cyclodextrin, PO), raloxifene (0.1 to 10 mg/kg/day, PO) or ethynyl estradiol EE2; 0.001 to 0.1 mg/kg/day, PO). A sham, vehicle treated control is also included. Serum and/or long bones are collected after a 35 day or shorter treatment period. Serum cytokine determinations are performed by bioassay.
# (§2) No consistent changes in other serum cytokines is detected.
# [1] = tested on: IL-4 stimulated proliferation (CTLL.6 cytolytic T cell; 11.6 helper T cell); test: Assay 3: cytokine dependent cell proliferation, IL-4; assay type: cell-based; settings: Mus musculus, 50% inhibition of IL-4 dependent cell proliferation, 0.01 to 1 µM tested
# Procedure: (§3) The following mouse cell lines were used for cytokine bioassays: CTLL.6 cytolytic T cell - IL-2, IL-4; 11.6 helper T cell - IL-4; T1165.17 plasmacytoma - IL-1, IL-6; B9 hybridoma - IL-6, LIF (leukemia inhibitory factor). Approximately 5,000 cells are seeded per duplicate well in 96-well flat-bottom microtiter plates in standard tissue culture medium (i.e. Iscove's Modified Dulbecco's Medium or Dulbecco's Modified Eagle's Medium supplemented with 25 mM Hepes, 2 mM L-glutamine, 50 µM 2-mercaptoethanol, 50 units/ml penicillin, 50 µg/ml streptomycin sulfate, and fetal bovine serum) containing vehicle (DMSO), raloxifene (0.01 to 1 µM) or 17-b-estradiol (0.01 to 1 µM) in the absence or presence of the indicated recombinant cytokine. Microtiter plates are incubated at 37°C in a humidified 10% CO2 incubator for 24 to 72 hours. At the end of that time, either 1 µCi 3H-thymidine or 100 µg of MTT (3-[4,5-dimethylthiazol-2-yl]-2,5-diphenyltetrazolium bromide) is added per well followed by an additional 4 to 6 hours of incubation. Microcultures pulsed using tritiated thymidine are harvested onto filter pads and counted by liquid scintillation. […] Optical density readings are taken at 570 nm with a reference wavelength of 690 nm to quantitate cell proliferation. […]
# IL-6 [2] = test: Assay 2: IL-1-induced serum IL-6 in mice (ELISA); assay type: in vivo; settings: male BALB/c mice, 1 mg/kg PO for 3 days, then IL-1b 3 ug SC, 2 hours
# Procedure: Ten week old male BALB/c mice are treated with vehicle (20% cyclodextrin, PO) or raloxifene (1 mg/kg, PO) for 3 days. On day 4, mice are treated with vehicle (saline, IP), LA-15.1 anti-IL-1 receptor monoclonal antibody (mAb) (250 ug, IP) or human recombinant IL-1b (3 ug, SC). After 2 hours, serum was collected by orbital sinus puncture and IL-6 levels quantitated by ELISA.
# Injection of IL-1 into cyclodextrin treated mice induces a significant increase in serum IL-6 (193 ± 29 ng/ml) versus saline injected cyclodextrin treated mice (<1 ng/ml) (Table 2). […] The anti-IL-1 receptor mAb LA-15.1 completely attenuates the IL-1-induced rise in serum IL-6 levels.
# [3] = tested on: LIF stimulated cell proliferation (B9 hybridoma); test: Assay 3: cytokine dependent cell proliferation, LIF; assay type: cell-based; settings: Mus musculus; 50% inhibition of LIF dependent cell proliferation; 0.01 to 1 µM tested
# Procedure: as §3
# [4] = tested on: IL-2 stimulated proliferation (CTLL.6 cytolytic T cell); test: Assay 3: cytokine dependent cell proliferation, IL-2; assay type: cell-based; settings: Mus musculus, 50% inhibition of IL-2 dependent cell proliferation, 0.01 to 1 µM tested
# Procedure: as §3
# IL-6 [5] = test: Assay 1: serum IL-6 in OVX rats (bioassay); assay type: in vivo, SD rats
# Procedure: as §1, §2
# [6] = tested on: IL-6 stimulated cell proliferation (T1165.17 plasmacytoma; B9 hybridoma); test: Assay 3: cytokine dependent cell proliferation, IL-6; assay type: cell-based; settings: Mus musculus; 50% inhibition of IL-6 dependent cell proliferation; 0.01 to 1 µM tested
# Procedure: as §3
# [7] = OVX rats, 35 day treatment, PO, result in words
# [8] = animals treated for as few as four days post-OVX, result in words
# [9] = OVX rats, 100 µg/kg, 35 day treatment
IC50 [3],IC50 [6],Compound,OVX-induced osteopenia (OVX-induced osteopenia; PO),bone density (OVX-induced osteopenia),IC50 [1],IC50 [4],rise in serum IL-6 levels (IL-6 [5]; [7]),Serum IL-6 (IL-6 [5]; [8]),BMD % (protection) (OVX-induced osteopenia; 100 µg/kg),Serum IL-6 (IL-6 [5]; [9]),further results
0.603 µM,0.719 µM,O=C(c1ccc(OCCN2CCCCC2)cc1)c1c(-c2ccc(O)cc2)sc2cc(O)ccc12 [Raloxifene],significantly attenuate,did not respond,> 1 µM,> 1 µM,significantly attenuate,significant reduction,–,–,"BMD % (protection) (OVX-induced osteopenia; 0.1 mg.kg, PO): 63.88 ± 19.8%; BMD % (protection) (OVX-induced osteopenia; 1 mg/kg, PO): 82.50 ± 17.17%; BMD % (protection) (OVX-induced osteopenia; 10 mg/kg, PO): 82.09 ± 7.02%; IL-6 (IL-6 [2]; 1 mg/kg): 90 ± 21 ng/mL; IL-6 (IL-6 [2]; listed as 139478, 1 mg/kg): 90 ± 2.1 ng/mL; Serum IL-6 (IL-6 [5]; OVX rats, 0.1 mg.kg, PO, 35 day treatment): 4.32 ± 1.65 ng/mL; Serum IL-6 (IL-6 [5]; OVX rats, 1 mg/kg, PO, 35 day treatment): 1.55 ± 0.48 ng/mL; Serum IL-6 (IL-6 [5]; OVX rats, 10 mg/kg, PO, 35 day treatment): 1.23 ± 0.45 ng/mL"
–,–,"C#C[C@]1(O)CC[C@H]2[C@@H]3CCc4cc(O)ccc4[C@H]3CC[C@@]21C [Ethy, ethynyl estradiol]",significantly attenuate,did not respond,–,–,significantly attenuate,significant reduction,76.00 ± 18.3%,0.20 ± 0.10 ng/mL,"BMD % (protection) (OVX-induced osteopenia; 1 µg/kg): 5.28 ± 11.83%; BMD % (protection) (OVX-induced osteopenia; 10 µg/kg): 57.25 ± 16.07%; Serum IL-6 (IL-6 [5]; OVX rats, 1 µg/kg, 35 day treatment): 3.42 ± 2.23 ng/mL; Serum IL-6 (IL-6 [5]; OVX rats, 10 µg/kg, 35 day treatment): 1.84 ± 0.60 ng/mL"
> 1 µM,> 1 µM,"C[C@]12CC[C@@H]3c4ccc(O)cc4CC[C@H]3[C@@H]1CC[C@@H]2O [17-β-E2, 17-b-estradiol]",–,–,> 1 µM,> 1 µM,–,–,106.4 ± 11.8%,0.07 ± 0.10 ng/mL,–
